Measurements taken from patent publication US20040067932A1 (priority 2002, published 2004).
Structures can show the parent of a compound that is named as a salt. Where two headings read alike, the source gives them in different places.

Legend:
A375 melanoma cells = experiment: Colony formation assay of A375 cells; assay type: cell-based, human; details: 7 days
Procedure: FIG. 2 illustrates colony formation assay of A375 cells. Cells were treated with different drugs and colonies were counted after 7 days. The values represent the mean ±SEM of four independent experiments. D=DMSO (control); T=paclitaxel, 0.75 ng/ml; M=MRE 3008F20, 10 μM; C=CI-IB-MECA, 10 μM; TM=paclitaxel plus MRE 3008F20; TC=paclitaxel plus CI-IB-MECA treated cells. *P<0.01 TM versus T. Analysis was by ANOVA followed by Dunnett's test.;
Control plates received the same volume of DMSO alone. After 7 days of growth at 37° C. in humidified atmosphere containing 5% CO2, the cells were fixed with absolute methanol for 5′ and stained with 1/10 Giemsa/phosphate-buffered saline (PBS) staining solution for 10 minutes. Staining solution was removed and colonies of greater than 30 cells were scored as survivors. For each treatment, six individual wells were scored.
Colony formation assay experiments were performed on A375 melanoma cells treated with increasing concentration of paclitaxel (0.25-75 ng/ml). A3 stimulation is achieved with the selective agonist CI-IB-MECA while A3 blockade is obtained with the selective antagonist MRE 3008F20. […] (FIG. 2)

[1] = molecular target: T1, P-gp drug efflux activity in HeL023 cells (Homo sapiens, UniProt P08183); experiment: Rhodamine 123 efflux assay, HeL023 cells; assay type: cell-based; details: for % of Rh123 negative cells: cells expressing P-gp activity; for inhibition of P-gp activity (in words): Rh123 efflux, concentrations of Table 11 (MRE3008F20 10 μM)
T1 construct: nearly all (100±1%) the cells expressing high level of functional P-gp; endogenous in cells; host or cells: HeL023 human erythroleukemia cells
T1 sequence (P08183 whole entry): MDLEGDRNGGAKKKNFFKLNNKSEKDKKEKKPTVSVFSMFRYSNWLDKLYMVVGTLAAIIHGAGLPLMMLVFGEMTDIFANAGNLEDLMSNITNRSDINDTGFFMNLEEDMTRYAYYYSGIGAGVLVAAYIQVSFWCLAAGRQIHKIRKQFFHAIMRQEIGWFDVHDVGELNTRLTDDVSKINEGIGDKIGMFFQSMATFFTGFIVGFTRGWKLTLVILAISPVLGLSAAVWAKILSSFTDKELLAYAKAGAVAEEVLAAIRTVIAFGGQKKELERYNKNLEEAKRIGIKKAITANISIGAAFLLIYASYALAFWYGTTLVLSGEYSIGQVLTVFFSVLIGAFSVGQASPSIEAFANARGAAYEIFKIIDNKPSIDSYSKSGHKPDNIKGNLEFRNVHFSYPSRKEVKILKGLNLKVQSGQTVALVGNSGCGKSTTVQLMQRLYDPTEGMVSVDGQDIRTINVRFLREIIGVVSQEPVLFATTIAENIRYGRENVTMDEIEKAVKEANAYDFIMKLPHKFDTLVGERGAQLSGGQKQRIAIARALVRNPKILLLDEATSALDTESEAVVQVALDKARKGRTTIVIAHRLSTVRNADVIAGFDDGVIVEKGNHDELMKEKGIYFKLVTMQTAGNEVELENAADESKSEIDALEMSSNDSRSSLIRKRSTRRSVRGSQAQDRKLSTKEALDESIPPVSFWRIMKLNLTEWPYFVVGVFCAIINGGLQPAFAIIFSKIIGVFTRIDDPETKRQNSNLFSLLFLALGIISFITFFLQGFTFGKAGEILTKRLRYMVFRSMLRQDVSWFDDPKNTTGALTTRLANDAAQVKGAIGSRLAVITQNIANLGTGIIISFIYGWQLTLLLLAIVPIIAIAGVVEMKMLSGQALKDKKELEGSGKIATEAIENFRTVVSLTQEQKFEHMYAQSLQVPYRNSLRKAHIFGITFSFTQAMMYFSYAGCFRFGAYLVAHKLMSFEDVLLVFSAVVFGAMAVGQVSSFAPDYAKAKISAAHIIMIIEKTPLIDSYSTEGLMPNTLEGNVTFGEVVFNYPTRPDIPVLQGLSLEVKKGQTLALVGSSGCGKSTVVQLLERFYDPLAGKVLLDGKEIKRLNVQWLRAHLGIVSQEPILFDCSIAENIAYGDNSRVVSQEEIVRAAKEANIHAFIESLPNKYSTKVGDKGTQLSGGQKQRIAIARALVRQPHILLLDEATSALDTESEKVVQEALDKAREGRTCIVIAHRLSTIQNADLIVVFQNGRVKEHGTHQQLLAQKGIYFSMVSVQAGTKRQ
Procedure: 5×10^5 cells from each subline were loaded with 50 ng/ml of rhodamine 123 for 30 minutes at 37° C. in medium. The cells were washed and resuspended in dye-staining agent free medium for 3 hours at 37° C. to allow rhodamine 123 efflux. The cells were then washed twice and the fluorescence of intracellular rhodamine 123 were analysed with Flow cytometer (residual fluorescence FRES). The fluorescence was compared with loaded cells maintained at 4° C. to prevent drug export (maximal fluorescence FMAX). […] Cells from each subline that were not being exposed to rhodamine 123 were used as negative controls.
Rhodamine 123 (Rh123) retention, a P-gp functional assay, was studied in all cell lines. This assay was performed by incubating cells with Rh123 and determining Rh123 accumulation by measuring its fluorescence. The maximum load of Rh123 (FMAX) was quantified at the end of treatment harvesting the cells and storing them at 4° C. to prevent any active Rh123 efflux . The P-gp drug efflux was allowed incubating Rh123-loaded cells in fresh new medium Rh123-free for 3 hours at 37° C. After this incubation, residual fluorescence (FRES) was measured and compared to FMAX.

A375 cells = experiment: Flow cytometry (PI) G2/M accumulation and sub-G1 apoptosis, A375; assay type: cell-based, human; details: Homo sapiens, A-375, read-out: SEC50 (dose inducing 50% of the enhancing activity to vindesine)
Procedure: A375 and NCTC2544 adherent cells were trypsinized, mixed with floating cells, washed with PBS and permeabilised in 70% (vol/vol) ethanol/PBS solution at 4° C. for at least 24 hours. Jurkat, HeL023 and PBMC cells were centrifuged for 10 minutes at 1000×g. The cell pellet was then resuspended and permeabilised in 70% (vol/vol) ethanol/PBS solution at 4° C. for at least 24 hours. The cells were washed with PBS and the DNA was stained with a PBS solution, containing 20 μg/ml of propidium iodide and 100 μg/ml of RNAse, at room temperature for 30 minutes. Cells were analysed by FACScan (Becton-Dickinson) and the content of DNA was evaluated by the Cell-LISYS program (Becton-Dickinson). Cell distribution among cell cycle phases and apoptotic cells was evaluated as previously described (Secchiero et al., 2001). Briefly, the cell cycle distribution is shown as the percentage of cells containing 2n (G1 phase), 4n (G2 and M phases), 4n>x>2n. DNA amount (S phase) judged by propidium iodide staining. The apoptotic population is the percentage of cells with DNA content lower than 2n.
Cell proliferation and apoptosis are quantified by flow cytometer analysis after propidium-iodide (PI) DNA staining.

[2] = molecular target: T2, human A3 adenosine receptor (Homo sapiens, UniProt P0DMS8); experiment: biochemical
T2 sequence (P0DMS8 1-318): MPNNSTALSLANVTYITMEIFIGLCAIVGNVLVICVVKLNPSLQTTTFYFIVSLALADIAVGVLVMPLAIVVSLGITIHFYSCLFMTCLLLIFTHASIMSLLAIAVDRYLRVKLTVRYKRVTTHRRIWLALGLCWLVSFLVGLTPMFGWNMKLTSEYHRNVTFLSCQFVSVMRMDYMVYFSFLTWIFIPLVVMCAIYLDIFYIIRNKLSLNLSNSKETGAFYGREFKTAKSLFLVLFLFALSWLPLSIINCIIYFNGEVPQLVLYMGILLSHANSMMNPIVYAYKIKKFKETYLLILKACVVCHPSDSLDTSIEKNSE

[3] = test system: human colon carcinoma HT29 cell line; experiment: MTT growth inhibitory assay, HT29; assay type: cell-based; details: HT-29
[4] = test system: human pancreatic cancer Panc-1; experiment: MTT growth inhibitory assay, Panc-1; assay type: cell-based; details: Human Pancreatic Cancer Panc-1; read-out: IC50 growth inhibition, agent used separately
[5] = test system: human melanoma A375 cell line; experiment: MTT growth inhibitory assay, A375; assay type: cell-based; details: Homo sapiens, A-375, Human Melanoma A375; read-out: IC50 growth inhibition, agent used separately
[6] = test system: human lung carcinoma SKMES; experiment: MTT growth inhibitory assay, SKMES; assay type: cell-based

CNC(=O)[C@H]1O[C@@H](n2cnc3c(NCc4cccc(I)c4)nc(Cl)nc32)[C@H](O)[C@@H]1O [CI-IB-MECA]
colony formation, % of DMSO control (A375 melanoma cells; 10 μM alone): 130%
colony formation, % of control, combined with paclitaxel (A375 melanoma cells; 10 μM plus paclitaxel 0.75 ng/ml): 85%

Nc1nc2ccc(Cl)cc2c2nc(-c3ccco3)nn12 [drawing 12, reference compound]
% of Rh123 negative cells ([1]; 70 μM): 87.1 ± 1.0%

Nc1nc(NCCc2ccc(O)cc2)nc2nc(-c3ccco3)nn12 [ZM 241385, 4-(2-[7-amino-2-(2-furyl)-[1,2,4]triazolo[2,3-a][1,3,5]triazin-5-ylamino]ethyl)phenol, reference compound]
EC50 (A375 cells): 25 ± 2.23 µM
inhibition of P-gp activity (in words) [1]: much lower effect on P-gp activity

Cc1ccc(NC(=O)Nc2nc3nn(C)cc3c3nc(-c4ccco4)nn23)cc1 [drawing 11]
% of Rh123 negative cells ([1]; 10 μM): 22.0 ± 1.0%

Nc1nc(NCCc2ccc(O)cc2)nc2nc(-c3ccco3)nn12 [drawing 13, reference compound]
% of Rh123 negative cells ([1]; 70 μM): 93.0 ± 1.1%

Nc1nc2ccc(Cl)cc2c2nc(-c3ccco3)nn12 [CGS 15943, 5-amino-9-chloro-2-(furyl) 1,2,4-triazolo[1,5-c]quinazoline, reference compound]
EC50 (A375 cells): 12.6 ± 1.41 µM
inhibition of P-gp activity (in words) [1]: much lower effect on P-gp activity
Ki [2]: 0.118 ± 0.012 µM

CCc1c2c(nc3ccc(OC(=O)N4CCC(N5CCCCC5)CC4)cc13)-c1cc3c(c(=O)n1C2)COC(=O)[C@]3(O)CC [irinotecan HCL, reference compound]
IC50 ([3]; Human Colon Carcinoma HT29, read-out: IC50 growth inhibition, agent used separately): 1.05 ± 0.07 µg/mL
IC50 ([3]; Homo sapiens, HT29, irinotecan HCl 0.04-20 μg/ml, alone, read-out: IC50 of irinotecan HCl, A3 antagonist none): 0.96 µg/mL
IC50 [4]: 1.12 ± 0.29 µg/mL
IC50 [5]: 0.88 ± 0.19 µg/mL
IC50 ([6]; Homo sapiens, SKMES, irinotecan HCL 0.04-20 μg/ml, alone, read-out: IC50 of irinotecan HCL, A3 antagonist none): 1.17 µg/mL
IC50 ([6]; Human Lung Carcinoma SKMES, read-out: IC50 growth inhibition, agent used separately): 1.23 ± 0.36 µg/mL

CCCn1cc2c(nc(NC(=O)Nc3ccccc3)n3nc(-c4ccco4)nc23)n1 [drawing 9]
% of Rh123 negative cells ([1]; 10 μM): 0.8 ± 0.2%
